Our source for the Kd values is article PMC2151541 (The Journal of General Physiology, 2006).

The target of this assay is muscle acetylcholine nicotinic receptor (AChR), adult mouse muscle, wild type (Mus musculus, UniProt P02716+P04756+P09690+P20782). In words: cell-attached single-channel patch clamp. Format: cell-based.

Molecules are shown by their SMILES.

Chain of muscle acetylcholine nicotinic receptor (AChR), adult mouse muscle, wild type (P02716 25-520): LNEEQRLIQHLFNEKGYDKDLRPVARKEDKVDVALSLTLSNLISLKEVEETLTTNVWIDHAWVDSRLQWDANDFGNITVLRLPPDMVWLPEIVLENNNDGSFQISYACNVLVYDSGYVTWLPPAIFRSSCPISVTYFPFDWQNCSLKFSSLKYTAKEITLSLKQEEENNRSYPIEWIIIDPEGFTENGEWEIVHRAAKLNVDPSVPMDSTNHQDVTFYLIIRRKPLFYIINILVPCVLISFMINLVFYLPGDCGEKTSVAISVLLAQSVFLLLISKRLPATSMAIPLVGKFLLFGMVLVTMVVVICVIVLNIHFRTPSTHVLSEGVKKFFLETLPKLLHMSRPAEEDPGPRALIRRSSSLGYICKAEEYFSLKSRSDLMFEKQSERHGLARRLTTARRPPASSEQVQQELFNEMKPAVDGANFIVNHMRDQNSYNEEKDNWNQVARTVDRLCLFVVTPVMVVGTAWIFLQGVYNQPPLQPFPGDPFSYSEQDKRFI
Chain of muscle acetylcholine nicotinic receptor (AChR), adult mouse muscle, wild type (P20782 21-493): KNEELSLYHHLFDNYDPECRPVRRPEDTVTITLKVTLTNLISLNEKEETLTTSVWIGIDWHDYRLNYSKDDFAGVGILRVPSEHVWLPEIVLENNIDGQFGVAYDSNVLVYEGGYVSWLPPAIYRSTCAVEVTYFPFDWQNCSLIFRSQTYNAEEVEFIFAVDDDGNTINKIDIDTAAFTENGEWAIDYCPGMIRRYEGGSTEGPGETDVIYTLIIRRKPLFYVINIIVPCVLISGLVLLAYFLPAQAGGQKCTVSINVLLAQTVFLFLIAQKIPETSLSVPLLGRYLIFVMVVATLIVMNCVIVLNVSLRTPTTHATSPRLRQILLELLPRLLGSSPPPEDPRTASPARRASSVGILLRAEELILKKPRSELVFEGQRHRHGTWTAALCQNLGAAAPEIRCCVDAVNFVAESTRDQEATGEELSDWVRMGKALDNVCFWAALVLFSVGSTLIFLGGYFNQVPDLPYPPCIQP
Chain of muscle acetylcholine nicotinic receptor (AChR), adult mouse muscle, wild type (P04756 21-457): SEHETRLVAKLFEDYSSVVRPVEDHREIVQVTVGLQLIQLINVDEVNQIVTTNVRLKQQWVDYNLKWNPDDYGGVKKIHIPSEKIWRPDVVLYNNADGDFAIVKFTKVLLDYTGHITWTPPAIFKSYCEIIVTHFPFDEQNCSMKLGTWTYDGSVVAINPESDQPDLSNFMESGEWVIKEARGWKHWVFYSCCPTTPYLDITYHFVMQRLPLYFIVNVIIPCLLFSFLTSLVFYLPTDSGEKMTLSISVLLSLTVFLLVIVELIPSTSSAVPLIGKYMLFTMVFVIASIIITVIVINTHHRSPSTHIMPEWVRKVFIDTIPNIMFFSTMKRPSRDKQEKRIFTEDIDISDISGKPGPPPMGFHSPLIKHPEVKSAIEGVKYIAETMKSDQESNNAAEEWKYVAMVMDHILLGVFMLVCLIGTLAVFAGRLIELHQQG
Chain of muscle acetylcholine nicotinic receptor (AChR), adult mouse muscle, wild type (P09690 24-501): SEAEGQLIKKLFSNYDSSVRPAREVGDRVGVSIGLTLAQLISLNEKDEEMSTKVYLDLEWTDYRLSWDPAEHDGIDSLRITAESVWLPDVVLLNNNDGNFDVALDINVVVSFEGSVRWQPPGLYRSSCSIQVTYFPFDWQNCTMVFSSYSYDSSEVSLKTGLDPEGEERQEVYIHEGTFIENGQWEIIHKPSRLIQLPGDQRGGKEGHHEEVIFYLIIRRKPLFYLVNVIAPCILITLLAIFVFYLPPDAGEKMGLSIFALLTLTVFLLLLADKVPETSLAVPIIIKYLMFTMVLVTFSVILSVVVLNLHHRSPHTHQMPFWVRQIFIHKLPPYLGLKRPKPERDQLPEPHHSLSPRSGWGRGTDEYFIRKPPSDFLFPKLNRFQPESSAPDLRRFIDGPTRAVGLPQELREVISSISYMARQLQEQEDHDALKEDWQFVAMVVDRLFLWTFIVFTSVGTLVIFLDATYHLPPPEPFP

As usually defined, the Kd is the constant that tells how readily two partners part at equilibrium. Higher therefore signals weaker binding. In turn, `C[N+](C)(C)CCO` [choline] came in with a dissociation constant (Kd) of 12.5 mM.
